Experiment in all cases: DTP human tumour cell line panel, 48 h
For assay [1], the system named is A549.
Assay [2] has as its system CAKI-1.
Assay [3] relates to COLO 205.
The subject of assay [4] is EKVX.
Assay [5] has as its system HL-60.
Assay [6] concerns HT-29.
The test system of assay [7] is K562.
Assay [8] relates to M14.
Assay [9] relates to NCI-H23.
Assay [10] relates to NCI-H460.
For assay [11], the system named is NCI-H522.
Assay [12] deals with OVCAR-5.
Assay [13] concerns RXF 393.
For assay [14], the system named is SK-MEL-28.
Assay [15] has as its system SN12C.
Assay [16] has as its system SNB-75.
Assay [17] concerns UO-31.
The subject of assay [18] is MCF7.

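The compound was tested at five concentrations on cells cultured in 96-well plates, with a 48-hour exposure period. GI50 is the concentration that inhibits growth by half.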 Activity calls are given as the source filed them. Rule as the data show it: active = GI50 up to about 1.1 µM and inactive = higher.

The GI50 is the concentration that inhibits growth by half. For `O=C(CCc1nnc(S)[nH]1)Nc1cccc(C(F)(F)F)c1`, the GI50 in assay [1] was > 100 µM (inactive); in assay [2], > 100 µM (inactive); in assay [3] it was 80 µM (inactive); in assay [4], > 100 µM (inactive); in assay [5], > 100 µM (inactive); in assay [6] it was > 100 µM (inactive). The GI50 is > 100 µM (inactive) in assay [7]; > 100 µM (inactive) in [8]; > 100 µM (inactive) in [9]; > 100 µM (inactive) in assay [10]; 35.2 µM (inactive) in assay [11]; > 100 µM (inactive) in [12]. For the same compound, the GI50 in assay [13], in [14], in [15], in assay [16] and in assay [17] was > 100 µM (inactive) each time.

Take `Cc1cc(NS(=O)(=O)c2ccc(NC(=O)c3cccc4cc5ccccc5nc34)cc2)no1`: the GI50 was 22 µM (inactive) in assay [1]; 21.9 µM (inactive) in assay [2]; 23.3 µM (inactive) in [3]; 29.6 µM (inactive) in assay [4]; 30 µM (inactive) in [6]; 18.1 µM (inactive) in assay [7]. Further, the GI50 was 23.5 µM (inactive) in [8]; 17.2 µM (inactive) in assay [9]; 18.3 µM (inactive) in assay [10]; 15.5 µM (inactive) in assay [11]; 23.2 µM (inactive) in assay [12]; 14.8 µM (inactive) in assay [13]. Also, the GI50 in assay [14] is 8.36 µM (inactive); in assay [15] it was 18 µM (inactive); in assay [16] it was 17.6 µM (inactive); in [17], 6.87 µM (inactive).

As to `O=C(O)CCc1cccc2c1oc1c(CCC(=O)O)cccc12`, the GI50 in assay [1], in assay [2], in [3], in [5], in assay [6] and in [7] was > 100 µM (inactive) throughout. Besides, the GI50 in assay [8], in [9], in assay [10], in assay [11], in assay [12] and in assay [13] was > 100 µM (inactive) each time. In addition, the GI50 in [14], in [15], in assay [16] and in assay [17] was > 100 µM (inactive) in each case.

Turning to `CC(O)/C=C/C(CCC(C)CO)C(C)C` (stereo not given), the GI50 in assay [1], in [2], in assay [3], in [4], in [5] and in assay [6] was > 100 µM (inactive) in each case. Besides, the GI50 in assay [7], in assay [8], in [9], in assay [10], in [11] and in assay [12] was > 100 µM (inactive) each time. Moreover, the GI50 in assay [13], in assay [14], in [15], in assay [16] and in [17] was > 100 µM (inactive) throughout.

For the compound `Cc1cccc(C)c1NC(=O)CCC(=O)NC(N)=S`, the GI50 in assay [1], in [2], in assay [3], in [4], in assay [5] and in assay [6] was > 100 µM (inactive) throughout. The GI50 in assay [7], in assay [8], in [9], in assay [10], in [11] and in [12] was > 100 µM (inactive) each time. The GI50 in assay [13], in assay [15], in assay [16] and in assay [17] was > 100 µM (inactive) throughout.

Take `O=C(CSSCC(=O)Nc1ccc(Br)cc1)Nc1ccc(Br)cc1`: the GI50 in [1] was 16.8 µM (inactive); in assay [2], 24.2 µM (inactive); in assay [3], 28.5 µM (inactive); in assay [4] it was 26.5 µM (inactive); in assay [5], 16.9 µM (inactive); in assay [6], 20.9 µM (inactive). In addition, the GI50 was 21.2 µM (inactive) in [7]; 17.7 µM (inactive) in assay [8]; 19.3 µM (inactive) in assay [9]; 16.9 µM (inactive) in [10]; 12.2 µM (inactive) in assay [11]; 18.2 µM (inactive) in assay [12]. Further, the GI50 in [13] is 18.7 µM (inactive); in assay [14] it was 18.5 µM (inactive); in [15], 16.3 µM (inactive); in [16] it was 20.7 µM (inactive); in assay [17] it was 17.7 µM (inactive).

With `Cc1cc(C)n(CCNCCn2nc(C)cc2C)n1`, the GI50 in assay [1], in [2], in assay [3], in assay [4], in assay [5] and in [7] was > 100 µM (inactive) in each case. Also, the GI50 in assay [8] was > 100 µM (inactive); in [9] it was > 100 µM (inactive); in [10] it was > 100 µM (inactive); in assay [11] it was > 100 µM (inactive); in [13] it was > 100 µM (inactive); in assay [14] it was 91 µM (inactive). Also, the GI50 in assay [15], in [16] and in assay [17] was > 100 µM (inactive) in each case.

As for `O=C1c2ccccc2CC1C1(O)C(=O)Nc2c(Cl)cc(Cl)cc21` (stereo not given), the GI50 was 47.9 µM (inactive) in assay [1]; > 100 µM (inactive) in [2]; 75.2 µM (inactive) in assay [3]; 67 µM (inactive) in assay [4]; 35.9 µM (inactive) in assay [5]; 67.8 µM (inactive) in assay [6]. Besides, the GI50 in [7] was 30.8 µM (inactive); in [8] it was > 100 µM (inactive); in [9], 24.9 µM (inactive); in assay [10], 99.8 µM (inactive); in [11], 17.9 µM (inactive); in assay [12] it was > 100 µM (inactive). For the same compound, the GI50 in assay [13] was 23.6 µM (inactive); in assay [14], > 100 µM (inactive); in assay [15], > 100 µM (inactive); in [16], 61.9 µM (inactive); in [17] it was 49.8 µM (inactive).

As for `O=C1CSC(Cc2nc3ccccc3[nH]2)=N1`, the GI50 in assay [1] was 21.6 µM (inactive); in [2], 15.8 µM (inactive); in [3] it was 23.5 µM (inactive); in assay [4] it was 33.7 µM (inactive); in [5], 28.6 µM (inactive); in assay [6] it was 24.7 µM (inactive). In addition, the GI50 is 15 µM (inactive) in assay [7]; 15.4 µM (inactive) in assay [8]; 18.6 µM (inactive) in [9]; 17.7 µM (inactive) in [11]; 28.8 µM (inactive) in [12]; 18.7 µM (inactive) in assay [13]. Moreover, the GI50 was 16 µM (inactive) in assay [14], 18.1 µM (inactive) in assay [15], 17.1 µM (inactive) in assay [16] and 20.6 µM (inactive) in assay [17].

As to `CSCC[C@@H](NC(=O)[C@H](CC(C)C)NC(=O)C(Cc1cnc[nH]1)NC(=O)CNC(=O)[C@@H](NC(=O)[C@H](C)NC(=O)[C@H](Cc1c[nH]c2ccccc12)NC(=O)[C@H](CCC(N)=O)NC(=O)[C@@H](N)CC(N)=O)C(C)C)C(N)=O` (stereo not given in full), the GI50 in [1], in assay [3], in assay [4], in assay [5], in assay [6] and in assay [7] was > 100 µM (inactive) throughout. Moreover, the GI50 in assay [18], in [9], in [10], in [11], in assay [12] and in [13] was > 100 µM (inactive) each time. The GI50 in assay [14], in [15], in assay [16] and in assay [17] was > 100 µM (inactive) each time.

For the compound `CCC(COC(=O)CC[C@@H](NC(=O)C(C)NC(=O)C(C)OC1C(O)C(CO)OC(OCc2ccccc2)C1NC(C)=O)C(N)=O)NC1c2ccccc2Nc2cccc([N+](=O)[O-])c21` (stereo not given in full), the GI50 in assay [1], in assay [2], in assay [3], in [4], in [5] and in assay [6] was > 100 µM (inactive) in each case. The GI50 in assay [7] is > 100 µM (inactive); in assay [8] it was > 100 µM (inactive); in [9], > 100 µM (inactive); in assay [10], 54 µM (inactive); in [11], > 100 µM (inactive); in [12], > 100 µM (inactive). Besides, the GI50 is 37.4 µM (inactive) in [13]; > 100 µM (inactive) in assay [14]; > 100 µM (inactive) in [15]; 94.8 µM (inactive) in assay [16]; > 100 µM (inactive) in assay [17].

Consider `Cn1c(=O)nc2n(-c3ccc(Br)cc3)c3ccccc3nc-2c1=O`, for which the GI50 in [1] is 2.02 µM (inactive); in [2], 4.86 µM (inactive); in assay [3] it was 2.64 µM (inactive); in [4], 1.94 µM (inactive); in assay [6] it was 2.29 µM (inactive); in assay [7], 5.43 µM (inactive). The GI50 in [8] is 3.75 µM (inactive); in assay [9], 0.783 µM (active); in assay [10] it was 1.82 µM (inactive); in assay [11], 4.39 µM (inactive); in assay [12], 13.6 µM (inactive); in [13], 12.3 µM (inactive). For the same compound, the GI50 in assay [15] is 4.97 µM (inactive); in assay [16], 4.65 µM (inactive); in assay [17] it was 10.4 µM (inactive).

The record behind these values is ChEMBL document CHEMBL1201862, “PubChem BioAssay data set” (2004).
